Results taken from patent US20050227355A1, “Serum-free cell culture media” (priority 1996, published 2005).
“Also recorded” adds a separate entry of the source. Each block holds one compound with its values, some of them ahead of it.

What was measured:
[1] = Stability of sterol against precipitation in medium; assay type: physicochemical
Method: The optimum sterol for cell culture should meet the following specifications: a) be stable against precipitation in medium at 37° C., b) stimulate cell growth and viability as well as does cholesterol, or better, and c) for adherent cells: produce a high surface tension in the medium for optimum adherence of the cells to the surface by hydrophobic forces.

Hybridoma cells = assay: Growth promoting effect of alcohols on hybridoma cells (Example 1); assay type: cell-based, Mouse; conditions: for effect on cell growth (inhibition of cell growth): RPMI-SR3 protein-free medium, alcohol up to 1.0% by vol
Method: • a) Hybridoma cells were cultured in RPMI 1640 supplemented with solutions A and B, described above plus 20 mM ethanolamine (referred to as RPMI-SR3), and by way of comparison in the same medium further supplemented with 10 mg/ml albumen (5% by vol.) or in RPMI 1640 supplemented with 10% v/v horse serum.

[2] = Surface tension of the medium; assay type: physicochemical
1E6 Mouse hybridoma = assay: Sterol analogues in suspended cell culture (Example 8); assay type: cell-based; conditions: test concentration 2 μg/ml
Method: The basal media were supplemented by SSR2 described above, i.e. a solution containing 20 mg/ml PLURONIC F68, about 4 mM EDTA, about 3 mM Fe, about 40 mM sodium citrate/citric acid, about 3 mM aurintricarboxylic acid and about 1% trace elements. […] Each cul-ture was run in duplicate. As a control, cholesterol was also used, but in this case the basal medium was supplemented by ‘Solution Cx’ or ‘Solution Dx’ described above, as appropriate to the cell type. The negative controls referred to below were in each case a cell culture containing no test substance (sterol).

adherent cells = assay: Growth stimulating effect of alcohols in adherent cell culture (Example 10); assay type: cell-based; conditions: concentrations around 0.1%
Text: Cell culture was again carried out as described in Example 8, but with the addition of a number of alcohols rather than sterols.
Test concentration: 1×=0.1%, or 5×=0.5%.

[3] = system: Vero, CHO-K1 and 1E6 hybridoma cells; assay: Cell growth and morphology in media containing sterols other than cholesterol (Example 8); assay type: cell-based; conditions: test concentration 2 μg/ml
Method: The basal media used were DME/F12 for adherent cells, and RPMI-X for suspension cells. The basal media were supplemented by SSR2 described above, i.e. a solution containing 20 mg/ml PLURONIC F68, about 4 mM EDTA, about 3 mM Fe, about 40 mM sodium citrate/citric acid, about 3 mM aurintricarboxylic acid and about 1% trace elements. […] For hybridoma cells, this was still further supplemented by ethanolamine at 20 μM. Each cul-ture was run in duplicate. As a control, cholesterol was also used, but in this case the basal medium was supplemented by ‘Solution Cx’ or ‘Solution Dx’ described above, as appropriate to the cell type. The negative controls referred to below were in each case a cell culture containing no test substance (sterol). Cells were cultivated through 2 passages for adherent cells, and 3 passages for the hybridoma line having regard to the greater difficulty of morphological scoring in suspension cultures, this being compensated by the longer culture period. All cultures of the same experiment were subcultured using an identical split ratio, for example 1:10; this ratio being adjusted in the individual experiments to suit the growth rate of the positive control (see above). […] Then adherent cells were trypsinized and subcultured further for the second passage—followed by counting the number of cells when confluent for the second time. Hybridoma cells, growing in suspension, were simply diluted in medium for each new passage. Counting of all kinds of cells were generally performed using a standard Bürker chamber, and viability determined by Trypan Blue exclusion (only viable cells were counted). In some experiments, where feasible, cells were counted directly in the microscope viewing field using a calibrated grid. […] The morphological index is mainly based on three properties: single cell morphology, number of cells, and the degree of uniform distribution of cells around the culture surface (‘cellular behaviour’).

- stability in medium [1]: somewhat unstable in media
- solubility in the final medium at storage temperature ([1]; 4° C., with PLURONIC F68 and ethanol): kept in solution
- solubility in the final medium at cultivation temperature ([1]; 37° C., cell density below 10^5 cells/ml): gradually precipitate
Compound: CC(C)CCC[C@@H](C)[C@H]1CC[C@H]2[C@@H]3CC=C4C[C@@H](O)CC[C@]4(C)[C@H]3CC[C@]12C [Cholesterol]

Compound: CO [Methanol]
- effect on cell growth (inhibition of cell growth) (Hybridoma cells): positive effects on cell growth

Compound: C[C@H](CCC(=O)O)[C@H]1CC[C@H]2[C@@H]3[C@H](O)C[C@@H]4C[C@H](O)CC[C@]4(C)[C@H]3C[C@H](O)[C@]12C [Cholic acid]
- surface tension of the medium [2]: low surface tension
- substitution for cholesterol in suspended cell culture (1E6 Mouse hybridoma): appears possible to substitute cholic acid for cholesterol

Compound: CC(O)CO (centres unmarked) [propylene glycol]
- effects on cell growth and viability (adherent cells): positive effects on cell growth and viability

Compound: CC(=O)O[C@H]1CC[C@@]2(C)C(=CC[C@H]3[C@@H]4CC[C@H]([C@H](C)CCCC(C)C)[C@@]4(C)CC[C@@H]32)C1 [Cholesteryl Acetate]
- stability in medium [1]: stable in solution
- cell growth and viability / suitability as replacement of cholesterol [3]: barely affected
- cell growth and viability / suitability as replacement of cholesterol ([3]; listed as cholesteryl acetate): good results

Compound: CCO [Ethanol]
- effect on cell growth (inhibition of cell growth) (Hybridoma cells): positive effects on cell growth
- effect on cell growth (inhibition of cell growth) (Hybridoma cells; listed as ethanol): negative inhibition (i.e. promotion) of cell growth
- growth promoting effect in protein or serum supplemented media (Hybridoma cells; medium with 10 mg/ml albumen or 10% v/v horse serum): no growth promoting effect; also recorded: not apparent
- effects on cell growth and viability (adherent cells): positive effects on cell growth and viability

Compound: CC[C@H](CC[C@@H](C)[C@H]1CC[C@H]2[C@@H]3CC=C4C[C@@H](O)CC[C@]4(C)[C@H]3CC[C@]12C)C(C)C [β-sitosterol]
- stability in medium [1]: less than satisfactory
- cell growth and viability / suitability as replacement of cholesterol [3]: functions well as a stimulant of cell growth and viability

Compound: OCCO [Ethylene Glycol]
- effects on cell growth and viability (adherent cells): positive effects on cell growth and viability
